Data set [1] relates to Rattus norvegicus. The data set is described as follows: Antihypertensive activity in spontaneously hypertensive rat assessed as drop in mean systolic blood pressure at 100 mg/kg, po after 4 hrs by tail cuff method relative to vehicle-treated control. The format is functional, Artery.
Data set [2] deals with Rattus norvegicus. The data set is described as follows: Antihypertensive activity in spontaneously hypertensive rat assessed as drop in mean systolic blood pressure at 100 mg/kg, po after 24 hrs by tail cuff method relative to vehicle-treated control. The data set is classed as functional, Artery.
Data set [3] relates to Rattus norvegicus. Put plainly: Antihypertensive activity in spontaneously hypertensive rat assessed as drop in mean systolic blood pressure at 100 mg/kg, po followed by second dosing at 24 hrs measured after 28 hrs by tail cuff method relative to vehicle-treated control. The data set is classed as functional, Artery.
Data set [4] deals with Rattus norvegicus. The data set is described as follows: Antihypertensive activity in spontaneously hypertensive rat assessed as drop in mean systolic blood pressure at 100 mg/kg, po followed by second dosing at 24 hrs measured after 48 hrs by tail cuff method relative to vehicle-treated control. The format is functional, Artery.
The nature of data set [5]: Toxicity in ip dosed CF-1 mouse after 48 hrs. Particulars: in vivo.

The term LD50 denotes the dose expected to kill half of the subjects tested. A higher LD50 goes with a less toxic substance.

Activity calls are given as the source filed them. The rule behind the calls is not given here.

Take `O=C(NNc1nncc(-c2cccc(Cl)c2)n1)C(F)(F)F`: the Activity in the data set on Rattus norvegicus [1] was determined as 0 mmHg; in the data set with Rattus norvegicus [2] it was 0 mmHg; in the data set on Rattus norvegicus [3], 64 mmHg; with Rattus norvegicus [4] it was 59 mmHg. This compound displayed an LD50 at 48 h in data set [5] of 237 mg/kg.
With `Cc1ccc(-c2cnnc(NNC(=O)C(F)(F)F)n2)cc1`, the outcome in the data set with Rattus norvegicus [1] (Artery), in the data set on Rattus norvegicus [2] (Artery), in the data set on Rattus norvegicus [3] (Artery) and in the data set on Rattus norvegicus [4] (Artery) was inactive. The same compound yielded an LD50 at 48 h in data set [5] of more than 300 mg/kg.
As for `Cc1ccc(-c2cnnc(NN)n2)cc1.O`, the Activity in the data set on Rattus norvegicus [1] came to 62 mmHg; in the data set with Rattus norvegicus [2], 28 mmHg; with Rattus norvegicus [3], 75 mmHg; in the data set with Rattus norvegicus [4], 38 mmHg. The 50% lethal dose (LD50) at 48 h in data set [5] came to 224 mg/kg.
For `Br.CC(N)C(=O)NNc1nncc(-c2ccc(Cl)cc2)n1.O` (stereo unspecified), in that order: 44 mmHg, 58 mmHg, 91 mmHg, 103 mmHg and 237 mg/kg.
As to `O=C(CCCCl)NNc1nncc(-c2ccc(Cl)cc2)n1`, the Activity is 0 mmHg in the data set with Rattus norvegicus [1], 25 mmHg in the data set with Rattus norvegicus [2], 48 mmHg with Rattus norvegicus [3] and 73 mmHg with Rattus norvegicus [4]. The compound also returned an LD50 at 48 h in data set [5] of 237 mg/kg.
On to `Br.CC(N)C(=O)NNc1nncc(-c2cccc(Cl)c2)n1.O` (stereo unspecified), for which the outcome with Rattus norvegicus [1] (Artery), in the data set on Rattus norvegicus [2] (Artery), in the data set with Rattus norvegicus [3] (Artery) and in the data set on Rattus norvegicus [4] (Artery) was inactive. In addition, the LD50 at 48 h in data set [5] came to 178 mg/kg.
Consider `COc1ccc(-c2cnnc(NN)n2)cc1`, for which the Activity in the data set with Rattus norvegicus [1] is 48 mmHg; with Rattus norvegicus [2] it was 26 mmHg; with Rattus norvegicus [3], 38 mmHg; with Rattus norvegicus [4], 22 mmHg. This compound yielded an LD50 at 48 h in data set [5] of 56 mg/kg.
For `CC(=O)NNc1nncc(-c2ccccc2)n1`, in that order: 40 mmHg, 94 mmHg, 106 mmHg, 104 mmHg and 178 mg/kg.
Regarding `Cl.O=C(NNc1nncc(-c2ccc(Cl)cc2)n1)C(Cl)(Cl)Cl`, the result with Rattus norvegicus [1] (Artery), in the data set on Rattus norvegicus [2] (Artery), in the data set with Rattus norvegicus [3] (Artery) and with Rattus norvegicus [4] (Artery) was inactive. Besides, in data set [5], the LD50 at 48 h was 237 mg/kg.
In the case of `CC(C)C(=O)NNc1nncc(-c2ccccc2)n1.Cl`, the Activity is reported as 44 mmHg in the data set with Rattus norvegicus [1], 46 mmHg in the data set on Rattus norvegicus [2], 98 mmHg in the data set with Rattus norvegicus [3] and 83 mmHg in the data set with Rattus norvegicus [4]. The LD50 at 48 h in data set [5] was found to be 178 mg/kg.
For `Cc1ccc(-c2cnnc(NNC(=O)Cc3ccccc3)n2)cc1`, the result in the data set with Rattus norvegicus [1] (Artery), with Rattus norvegicus [2] (Artery), with Rattus norvegicus [3] (Artery) and in the data set with Rattus norvegicus [4] (Artery) was inactive. This compound also displayed an LD50 at 48 h in data set [5] of 237 mg/kg.
In the case of `Br.CC(C)C(N)C(=O)NNc1nncc(-c2ccc(Cl)cc2)n1.O` (stereo unspecified), the LD50 at 48 h in data set [5] was determined as 178 mg/kg.
Turning to `COc1ccc(-c2cnnc(NNC(C)=O)n2)cc1`, the result with Rattus norvegicus [1] (Artery), in the data set on Rattus norvegicus [2] (Artery), with Rattus norvegicus [3] (Artery) and in the data set with Rattus norvegicus [4] (Artery) was inactive. Besides, the LD50 at 48 h in data set [5] was 237 mg/kg.
On to `Br.NC(Cc1ccccc1)C(=O)NNc1nncc(-c2ccccc2)n1.O` (stereo unspecified), for which the Activity came to 26 mmHg in the data set on Rattus norvegicus [1], 38 mmHg in the data set on Rattus norvegicus [2], 75 mmHg with Rattus norvegicus [3] and 82 mmHg in the data set on Rattus norvegicus [4]. Besides, the LD50 at 48 h in data set [5] is 178 mg/kg.
For `CNNc1nncc(-c2ccccc2)n1`, in that order: 0 mmHg, 49 mmHg, 56 mmHg, 92 mmHg and 178 mg/kg.
